# Assay results published in patent US20080293749A1, “Pyrrolidine(thi)ones Substituted by Heterocyclic Substituents in The 3-Position” (Gruenenthal GmbH, priority 2005, published 2008).
# System: not given
# Assay: not given
# Conditions: not given
row,Structure (SMILES),melting point
1,"O=C1CC(N2C=Nc3cccc(OCc4ccccc4)c3C2)C(=O)N1 (stereo not drawn) [Example 12d, 3-(5-benzyloxy-4H-quinazolin-3-yl)-pyrrolidine-2,5-dione]",100 to 108 °C
2,"Cc1cc(Br)c2c(c1)CN(C1CC(=O)NC1=O)C=N2 (stereo not drawn) [Example 8i, 3-(8-bromo-6-methyl-4H-quinazolin-3-yl)-pyrrolidine-2,5-dione]",240 to 241 °C
3,"CCCCCOc1cccc2c1CN(C1CC(=O)NC1=O)C=N2 (stereo not drawn) [Example 12c, 3-(5-pentyloxy-4H-quinazolin-3-yl)-pyrrolidine-2,5-dione]",154 to 160 °C
4,"CCOc1cccc2c1CN(C1CC(=O)NC1=O)C=N2 (stereo not drawn) [Example 12b, 3-(5-ethoxy-4H-quinazolin-3-yl)-pyrrolidine-2,5-dione]",203 to 205 °C
5,"O=C1CC(N2C=Nc3ccc(OCc4ccccc4)cc3C2)C(=O)N1 (stereo not drawn) [Example 8l, 3-(6-benzyloxy-4H-quinazolin-3-yl)-pyrrolidine-2,5-dione]",171 to 173 °C
6,"O=C1CC(N2C=Nc3ccc([N+](=O)[O-])cc3C2)C(=O)N1 (stereo not drawn) [Example 8f, 3-(6-nitro-4H-quinazolin-3-yl)-pyrrolidine-2,5-dione]",168 to 172 °C
7,"O=C1CC(N2C=Nc3ccc(Cl)c(Cl)c3C2)C(=O)N1 (stereo not drawn) [Example 9a, 3-(5,6-dichloro-4H-quinazolin-3-yl)-pyrrolidine-2,5-dione]",174 to 178 °C
8,"O=C1CC(N2C=Nc3cc([N+](=O)[O-])ccc3C2)C(=O)N1 (stereo not drawn) [Example 8h, 3-(7-nitro-4H-quinazolin-3-yl)-pyrrolidine-2,5-dione]",212 to 225 °C
9,"CC(C)Oc1cccc2c1CN(C1CC(=O)NC1=O)C=N2 (stereo not drawn) [Example 12e, 3-(5-isopropoxy-4H-quinazolin-3-yl)-pyrrolidine-2,5-dione]",191 to 192 °C
10,"COc1cc2c(cc1OC)N=CN(C1CC(=O)NC1=O)C2 (stereo not drawn) [Example 10b, 3-(6,7-dimethoxy-4H-quinazolin-3-yl)-pyrrolidine-2,5-dione]",189 to 200 °C
11,"CN1C(=O)CC(N2C=Nc3ccccc3C2)C1=O (stereo not drawn) [Example 11d, 1-methyl-3-(4H-quinazolin-3-yl)-pyrrolidine-2,5-dione]",163 to 164 °C
12,"COCCOc1cccc2c1CN(C1CC(=O)NC1=O)C=N2 (stereo not drawn) [Example 12f, 3-(5-(2-methoxyethoxy)-4H-quinazolin-3-yl)-pyrrolidine-2,5-dione]",288 to 290 °C
13,"CN1C(=O)CC(N2C=Nc3cc(F)ccc3C2)C1=O (stereo not drawn) [Example 11e, 7-fluoro-1-methyl-3-(4H-quinazolin-3-yl)-pyrrolidine-2,5-dione]",191 to 193 °C
14,"O=C1CC(N2C=Nc3c(Cl)cc(Cl)cc3C2)C(=O)N1 (stereo not drawn) [Example 8e, 3-(6,8-dichloro-4H-quinazolin-3-yl)-pyrrolidine-2,5-dione]",230 to 232 °C
15,"O=C1CC(N2C=Nc3c(cccc3C(F)(F)F)C2)C(=O)N1 (stereo not drawn) [Example 11c, 3-(8-trifluoromethyl-4H-quinazolin-3-yl)-pyrrolidine-2,5-dione]",188 to 190 °C
16,"O=C1CC(N2C=Nc3c(Cl)cccc3C2)C(=O)N1 (stereo not drawn) [Example 8j, 3-(8-chloro-4H-quinazolin-3-yl)-pyrrolidine-2,5-dione]",194 °C
17,"COc1cccc2c1N=CN(C1CC(=O)NC1=O)C2 (stereo not drawn) [Example 8k, 3-(8-methoxy-4H-quinazolin-3-yl)-pyrrolidine-2,5-dione]",195 to 200 °C

# Continued, values first:
row,melting point,Structure (SMILES)
1,122 °C,"COc1cccc2c1CN(C1CC(=O)NC1=O)C(C)=N2 (stereo not drawn) [Example 15o, 3-(5-methoxy-2-methyl-4H-quinazolin-3-yl)-pyrrolidine-2,5-dione]"
2,180 to 182 °C,"CC1=Nc2c(Cl)cc(Cl)cc2CN1C1CC(=O)NC1=O (stereo not drawn) [Example 15w, 3-(6,8-dichloro-2-methyl-4H-quinazolin-3-yl)-pyrrolidine-2,5-dione]"
3,200 to 201 °C,"CC1=Nc2cccc(C)c2CN1C1CC(=O)NC1=O (stereo not drawn) [Example 15n, 3-(2,5-dimethyl-4H-quinazolin-3-yl)-pyrrolidine-2,5-dione]"
4,195 to 203 °C,"CC1=Nc2ccc(Cl)cc2CN1C1CC(=O)NC1=O (stereo not drawn) [Example 15y, 3-(6-chloro-2-methyl-4H-quinazolin-3-yl)-pyrrolidine-2,5-dione]"
5,170 to 175 °C,"CC1=Nc2ccc([N+](=O)[O-])cc2CN1C1CC(=O)NC1=O (stereo not drawn) [Example 15z, 3-(2-methyl-6-nitro-4H-quinazolin-3-yl)-pyrrolidine-2,5-dione]"
6,116 to 119 °C,"CC1=Nc2cccc(OC(C)C)c2CN1C1CC(=O)NC1=O (stereo not drawn) [Example 15m, 3-(5-isopropoxy-2-methyl-4H-quinazolin-3-yl)-pyrrolidine-2,5-dione]"
7,145 to 150 °C,"CC1=Nc2c(Br)cc(C)cc2CN1C1CC(=O)NC1=O (stereo not drawn) [Example 15ff, 3-(8-bromo-2,6-dimethyl-4H-quinazolin-3-yl)-pyrrolidine-2,5-dione]"
8,200 to 202 °C,"COc1cc2c(cc1OC)N=C(C)N(C1CC(=O)NC1=O)C2 (stereo not drawn) [Example 15v, 3-(6,7-dimethoxy-2-methyl-4H-quinazolin-3-yl)-pyrrolidine-2,5-dione]"
9,186 to 191 °C,"CC1=Nc2c(Cl)ccc(Cl)c2CN1C1CC(=O)NC1=O (stereo not drawn) [Example 15f, 3-(5,8-dichloro-2-methyl-4H-quinazolin-3-yl)-pyrrolidine-2,5-dione]"
10,161 to 166 °C,"CC1=Nc2ccc(Cl)c(Cl)c2CN1C1CC(=O)NC1=O (stereo not drawn) [Example 15c, 3-(5,6-dichloro-2-methyl-4H-quinazolin-3-yl)-pyrrolidine-2,5-dione]"
11,132 to 143 °C,"CC1=Nc2ccc(OCc3ccccc3)cc2CN1C1CC(=O)NC1=O (stereo not drawn) [Example 15x, 3-(6-benzyloxy-2-methyl-4H-quinazolin-3-yl)-pyrrolidine-2,5-dione]"
12,176 to 178 °C,"CC1=Nc2c(Cl)cccc2CN1C1CC(=O)NC1=O (stereo not drawn) [Example 15hh, 3-(8-chloro-2-methyl-4H-quinazolin-3-yl)-pyrrolidine-2,5-dione]"
13,199 to 201 °C,"CC1=Nc2cc(Cl)cc(Cl)c2CN1C1CC(=O)NC1=O (stereo not drawn) [Example 15d, 3-(5,7-dichloro-2-methyl-4H-quinazolin-3-yl)-pyrrolidine-2,5-dione]"
14,154 to 156 °C,"CCCCCOc1cccc2c1CN(C1CC(=O)NC1=O)C(C)=N2 (stereo not drawn) [Example 15q, 3-(2-methyl-5-pentyloxy-4H-quinazolin-3-yl)-pyrrolidine-2,5-dione]"
15,203 to 210 °C,"CC1=Nc2cc([N+](=O)[O-])ccc2CN1C1CC(=O)NC1=O (stereo not drawn) [Example 15ee, 3-(2-methyl-7-nitro-4H-quinazolin-3-yl)-pyrrolidine-2,5-dione]"
16,> 260 °C (dec.),"CC1=Nc2cccc([N+](=O)[O-])c2CN1C1CC(=O)NC1=O (stereo not drawn) [Example 15p, 3-(2-methyl-5-nitro-4H-quinazolin-3-yl)-pyrrolidine-2,5-dione]"
17,130 to 133 °C,"CCOc1cccc2c1CN(C1CC(=O)NC1=O)C(C)=N2 (stereo not drawn) [Example 15k, 3-(5-ethoxy-2-methyl-4H-quinazolin-3-yl)-pyrrolidine-2,5-dione]"
18,106 to 110 °C,"CC1=Nc2cc3ccccc3cc2CN1C1CC(=O)NC1=O (stereo not drawn) [Example 15t, 3-(2-methyl-4H-benzo[g]quinazolin-3-yl)-pyrrolidine-2,5-dione]"
19,205 to 206 °C,"CC1=Nc2cc(C(F)(F)F)ccc2CN1C1CC(=O)NC1=O (stereo not drawn) [Example 15aa, 3-(2-methyl-7-trifluoromethyl-4H-quinazolin-3-yl)-pyrrolidine-2,5-dione]"

# System: IL-12 production of LPS-activated monocytes
# Assay: Inhibition of IL-12 production of LPS-activated human monocytes (sandwich ELISA of culture supernatants)
# Format: cell-based
# Conditions: Monocyte; human CD14-positive monocytes, 1 h preincubation with test substance, 10 μg/ml LPS from E. coli, 24 hours
# Experimental: (§1) Stimulation of human monocytes with lipopolysaccharide for secretion of IL-10 and IL-12:
# (§2) Human monocytes were isolated from peripheral blood mononuclear cells (PBMC), which were obtained from heparinized whole blood by means of a Ficoll density gradient centrifugation. For this, the PBMC were incubated with a monoclonal antibody which is directed against the monocyte-specific surface molecule CD14 and to which superparamagnetic microbeads (Miltenyi Biotech, Bergisch Gladbach) are coupled. For positive selection of the labelled monocytes from the cell mixture of the PBMC, the entire cell suspension was applied to a column with a ferromagnetic carrier matrix and this was placed in a magnetic field. The cells loaded with microbeads were thereby bound to the carrier matrix, and non-labelled cells passed through the column and were discarded. After removing the matrix from the magnetic field, the antibody-laden cells were eluted by rinsing the now demagnetized column with buffer. The purity of this CD14-positive monocyte population obtained in this way is about 95-98%. These monocytes were incubated in a density of 10^6 cells/ml of culture medium (RPMI, supplemented with 10% foetal calf serum) with the test substances, dissolved in DMSO, at 37° C. and 5% CO2 for one hour. 10 μg/ml of LPS from E. coli were then added. After 24 hours, cell-free culture supernatants were taken and tested for the content of IL-10 and IL-12.
# (§3) The concentration of IL-12 and IL-10 in the cell culture supernatants was determined by means of sandwich ELISAs using two anti-IL-12 and, respectively, IL-10 monoclonal antibodies (Biosource Europe, Fleurus, Belgium). A reference standard curve with human IL-10 and, respectively, IL-12 was included. The detection limit of the ELISAs was 15 pg/ml.
row,Structure (SMILES),IC50
1,"O=C1CC(N2C=Nc3cccc([N+](=O)[O-])c3C2)C(=O)N1 (stereo not drawn) [Example 14, 3-(5-nitro-4H-quinazolin-3-yl)-pyrrolidine-2,5-dione]",5.71 µg/mL
2,"O=C1CC(N2C=Nc3cc(F)cc(F)c3C2)C(=O)N1 (stereo not drawn) [Example 4, 3-(5,7-difluoro-4H-quinazolin-3-yl)-pyrrolidine-2,5-dione]",0.107 µg/mL
3,"O=C1CC(N2C=Nc3cc(F)c(F)cc3C2)C(=O)N1 (stereo not drawn) [Example 8d, 3-(6,7-difluoro-4H-quinazolin-3-yl)-pyrrolidine-2,5-dione]",0.715 µg/mL
4,"O=C1CC(N2C=Nc3cc(Cl)cc(F)c3C2)C(=O)N1 (stereo not drawn) [Example 2, 3-(7-chloro-5-fluoro-4H-quinazolin-3-yl)-pyrrolidine-2,5-dione]",1.4 µg/mL

# The next lines start with the values.
row,IC50,Structure (SMILES)
1,4 µg/mL,"CC1=Nc2cccc(Br)c2CN1C1CC(=O)NC1=O (stereo not drawn) [Example 15h, 3-(5-bromo-2-methyl-4H-quinazolin-3-yl)-pyrrolidine-2,5-dione]"
2,6 µg/mL,"CC1=Nc2cc(F)ccc2CN1C1CC(=O)NC1=O (stereo not drawn) [Example 15cc, 3-(7-fluoro-2-methyl-4H-quinazolin-3-yl)-pyrrolidine-2,5-dione]"

# System: IL-10 production of LPS-activated monocytes
# Assay: Increase in IL-10 production of LPS-activated human monocytes (sandwich ELISA of culture supernatants)
# Format: cell-based
# Conditions: Monocyte; human CD14-positive monocytes, 1 h preincubation with test substance, 10 μg/ml LPS from E. coli, 24 hours
# Experimental: as §1, §2, §3
row,Structure (SMILES),EC200
1,"CC1=Nc2cccc(Br)c2CN1C1CC(=O)NC1=O (stereo not drawn) [Example 15h, 3-(5-bromo-2-methyl-4H-quinazolin-3-yl)-pyrrolidine-2,5-dione]",> 50 µg/mL
2,"O=C1CC(N2C=Nc3cccc([N+](=O)[O-])c3C2)C(=O)N1 (stereo not drawn) [Example 14, 3-(5-nitro-4H-quinazolin-3-yl)-pyrrolidine-2,5-dione]",20 µg/mL
3,"O=C1CC(N2C=Nc3cc(F)cc(F)c3C2)C(=O)N1 (stereo not drawn) [Example 4, 3-(5,7-difluoro-4H-quinazolin-3-yl)-pyrrolidine-2,5-dione]",0.62 µg/mL
4,"O=C1CC(N2C=Nc3cc(F)c(F)cc3C2)C(=O)N1 (stereo not drawn) [Example 8d, 3-(6,7-difluoro-4H-quinazolin-3-yl)-pyrrolidine-2,5-dione]",> 50 µg/mL
5,"O=C1CC(N2C=Nc3cc(Cl)cc(F)c3C2)C(=O)N1 (stereo not drawn) [Example 2, 3-(7-chloro-5-fluoro-4H-quinazolin-3-yl)-pyrrolidine-2,5-dione]",1 µg/mL
6,"CC1=Nc2cc(F)ccc2CN1C1CC(=O)NC1=O (stereo not drawn) [Example 15cc, 3-(7-fluoro-2-methyl-4H-quinazolin-3-yl)-pyrrolidine-2,5-dione]",20 µg/mL
